Data set [1] concerns HIV. The data set is described as follows: inhibition of HIV-induced cytopathic effect in MT-4 cells (MTT method). It is filed as cell-based. To be noted: for EC50: Human immunodeficiency virus 1, MT4, HIV-infected MT-4 cells, 1000 CCID50, 4 or 5 day incubation at 37° C., MTT method, read-out: ED50: Effective concentration for the inhibition of the proliferation of HIV by 50%; for S.I.: Selectivity index (CD50/ED50): ratio CD50/ED50, MT-4 cells. In general terms: Protection from cytopathic effect is a common read-out in antiviral testing.

A short description of data set [2]: cytotoxicity: viability of mock-infected MT-4 host cells (MTT method). It counts as cell-based. As to conditions: human, mt-4 cells, read-out: CD50: Cytotoxic concentration that causes death of cells by 50%. Here is the method: The cytotoxicity of the compounds of the present invention was assessed in parallel with their antiviral activity. It was based on the viability of mock-infected host cells as determined by the MTT methods (se J. Virol. Methods, 20, 309 (1988)).
CD50 : Cytotoxic concentration that causes death of cells by 50%

Converted amounts (≈) assume the structure as drawn. Where only a bound is given, the exact number is not on record here.

Consider `CC/C=C/Cn1c(Oc2cc(C)cc(C)c2)c(CC)c(=O)[nH]c1=O` [Example 62], for which, in data set [1], the EC50 is less than 0.032 µg/mL and the “S.I.: Selectivity index (CD50/ED50)” value is more than 251. Also, in data set [2], the CC50 is 8.05 µg/mL (≈ 24.5 µM).
For the compound `C#CCn1c(C(=O)c2cc(C)cc(C)c2)c(CC)c(=O)[nH]c1=O` [Example 48, 1-propargyl-5-ethyl-6-(3,5-dimethylbenzoyl)-2,4-pyrimidinedione], in data set [1], the EC50 is less than 0.39 µg/mL and the “S.I.: Selectivity index (CD50/ED50)” value is on record as more than 93. Also, the CC50 in data set [2] was 36.4 µg/mL (≈ 117 µM).
For `CC#CCn1c(Sc2cc(C)cc(C)c2)c(C(C)C)c(=O)[nH]c1=O` [Example 31, 1-(2-butynyl)-5-isopropyl-6-(3,5-dimethylphenylthio)-2,4-pyrimidinedione] the same measures were less than 0.32 µg/mL, more than 52 and 16.9 µg/mL (≈ 49.5 µM).
For `CCc1c(Oc2cc(C)cc(C)c2)n(C/C=C/CO)c(=O)[nH]c1=O` [Example 83, 1-(4-hydroxy-trans-2-butenyl)-5-ethyl-6-(3,5-dimethylphenoxy)-2,4-pyrimidinedione] the same measures were less than 0.81 µg/mL, more than 31 and 25.5 µg/mL (≈ 77.2 µM).
For `CCOC/C=C\Cn1c(Sc2ccccc2)c(CC)c(=O)[nH]c1=O` [Example 16], in that order: 2.78 µg/mL (≈ 8.02 µM), 6.85 and 19 µg/mL (≈ 54.9 µM).
`COC(=O)/C=C/Cn1c(C(=O)c2cc(C)cc(C)c2)c(C(C)C)c(=O)[nH]c1=O` [Example 54]: in data set [1], the EC50 is less than 0.01 µg/mL and the “S.I.: Selectivity index (CD50/ED50)” value was > 3,005. Besides, the CC50 in data set [2] amounted to 30.1 µg/mL (≈ 78.2 µM).
For `Cc1cc(C)cc(C(=O)c2c(C(C)C)c(=O)[nH]c(=O)n2C/C=C/CN=[N+]=[N-])c1` [Example 74, 1-(4-azido-trans-2-butenyl)-5-isopropyl-6-(3,5-dimethylbenzoyl)-2,4-pyrimidinedione], in data set [1], the EC50 was less than 0.009 µg/mL and the “S.I.: Selectivity index (CD50/ED50)” value is more than 954. Further, the CC50 in data set [2] was found to be 8.59 µg/mL (≈ 22.5 µM).
For `CCc1c(Sc2cc(C)cc(C)c2)n(C/C=C\CCl)c(=O)[nH]c1=O` [Example 23] the same measures were less than 0.93 µg/mL, more than 41 and 38.2 µg/mL (≈ 105 µM).
